According to publication PMC8900595 (Journal of medicinal chemistry, 2021):

Experiments:
[1] = tested on: WSN-PB2-Nanoluc virus; type: cell-based, influenza A virus
[2] = tested on: A/WSN/33; assay: microbe, parasite or virus in culture; type: cell-based, influenza A virus
[3] = tested on: A549 cells; conditions: human

Compound	antiviral activity as described in SAR text [2]	Cytotoxicity (MTT) CC10 [3] [µM]	selectivity index [2]	further results
2,5-Dichloro-N-(4-chloro-2-methylphenyl)benzamide [compound 51]				activity under the assay conditions [1]: inactive
Cc1ccccc1NS(=O)(=O)c1cc(Cl)ccc1Cl [compound 2, 2,5-Dichloro-N-(o-tolyl)benzenesulfonamide]	substantially diminished activity	>5		
Cc1ccccc1N(C)S(=O)(=O)c1cc(Cl)ccc1Cl [compound 3, 2,5-Dichloro-N-methyl-N-(o-tolyl)benzenesulfonamide]	substantially diminished activity	>5		
C=CCN(c1ccccc1C)S(=O)(=O)c1cc(Cl)ccc1Cl [compound 4, N-Allyl-2,5-dichloro-N-(o-tolyl)benzenesulfonamide]		>5	>42	
C#CCN(c1ccccc1C)S(=O)(=O)c1cc(Cl)ccc1Cl [compound 5, 2,5-Dichloro-N-(prop-2-yn-1-yl)-N-(o-tolyl)benzenesulfonamide]		>5	>13	
Cc1ccccc1N(C(C)C)S(=O)(=O)c1cc(Cl)ccc1Cl [compound 6, 2,5-Dichloro-N-isopropyl-N-(o-tolyl)benzenesulfonamide]		>5	>3	loss of activity compared to compound 1 [2]: greater than 10 fold
CCN(c1ccccc1)S(=O)(=O)c1cc(Cl)ccc1Cl [compound 7, 2,5-Dichloro-N-ethyl-N-phenylbenzenesulfonamide]		>5	>6	loss of activity on removing the 2-methyl group [2]: greater than 10 ×
CCN(c1ccccc1Cl)S(=O)(=O)c1cc(Cl)ccc1Cl [compound 8, 2,5-Dichloro-N-(2-chlorophenyl)-N-ethylbenzenesulfonamide]	less effective	>5	>33	
CCN(c1ccccc1C#N)S(=O)(=O)c1cc(Cl)ccc1Cl [compound 9, 2,5-Dichloro-N-(2-cyanophenyl)-N-ethylbenzenesulfonamide]	less effective	>5	>29	
CCN(c1ccc(F)cc1)S(=O)(=O)c1cc(Cl)ccc1Cl [compound 10]	similarly potent	>5	>74	
CCN(c1ccc(C)cc1)S(=O)(=O)c1cc(Cl)ccc1Cl [compound 11, 2,5-Dichloro-N-ethyl-N-(p-tolyl)benzenesulfonamide]	well tolerated	>25	>298	
C=CCN(c1ccc(Cl)cc1C)S(=O)(=O)c1cc(Cl)ccc1Cl [compound 13, N-Allyl-2,5-dichloro-N-(4-chloro-2-methylphenyl)benzenesulfonamide]	generally more potent	>5	>135	
C#CCN(c1ccc(Cl)cc1C)S(=O)(=O)c1cc(Cl)ccc1Cl [compound 14, 2,5-Dichloro-N-(4-chloro-2-methylphenyl)-N-(prop-2-yn-1-yl)benzenesulfonamide]	generally more potent	>5	>42	
Cc1cc(Cl)ccc1N(CC1CC1)S(=O)(=O)c1cc(Cl)ccc1Cl [compound 15, 2,5-Dichloro-N-(4-chloro-2-methylphenyl)-N-(cyclopropylmethyl)benzenesulfonamide]		>5	>10	less active than the N-ethyl version (12) [2]: greater than 10 ×
COCCN(c1ccc(Cl)cc1C)S(=O)(=O)c1cc(Cl)ccc1Cl [compound 16, 2,5-Dichloro-N-(4-chloro-2-methylphenyl)-N-(2-methoxyethyl)-benzenesulfonamide]	lower activity	>5	>4	
Cc1cc(Cl)ccc1N(CCO)S(=O)(=O)c1cc(Cl)ccc1Cl [compound 17, 2,5-Dichloro-N-(4-chloro-2-methylphenyl)-N-(2-hydroxyethyl)benzenesulfonamide]	lower activity	>5		
Cc1cc(Cl)ccc1N(CCF)S(=O)(=O)c1cc(Cl)ccc1Cl [compound 18, 2,5-Dichloro-N-(4-chloro-2-methylphenyl)-N-(2-fluoroethyl)-benzenesulfonamide]	lower activity	>5	>9	IC50 ([2]; Influenza A virus, WSN, A549, 24 h, read-out: viral replication IC50): 0.55 µM
Cc1cc(Cl)ccc1N(C(F)F)S(=O)(=O)c1cc(Cl)ccc1Cl [compound 19, 2,5-Dichloro-N-(4-chloro-2-methylphenyl)-N-(difluoromethyl)benzenesulfonamide]	lower activity	>5	>4	
CCN(c1ccc(Cl)cc1F)S(=O)(=O)c1cc(Cl)ccc1Cl [compound 20, 2,5-Dichloro-N-(4-chloro-2-fluorophenyl)-N-ethylbenzenesulfonamide]		>5	>33	
CCN(c1c(C)cc(Cl)cc1Cl)S(=O)(=O)c1cc(Cl)ccc1Cl [compound 22, 2,5-Dichloro-N-(2,4-dichloro-6-methylphenyl)-N-ethylbenzenesulfonamide]	less active	>5	>13	

Compound	antiviral activity as described in SAR text [2]	Cytotoxicity (MTT) CC10 [3] [µM]	selectivity index [2]	further results
CCN(c1c(F)cc(Cl)cc1F)S(=O)(=O)c1cc(Cl)ccc1Cl [compound 23, 2,5-Dichloro-N-(4-chloro-2,6-difluorophenyl)-N-ethylbenzenesulfonamide]	less active		>12	
CCOC(=O)Cc1ccc(N(CC)S(=O)(=O)c2cc(Cl)ccc2Cl)cc1 [compound 24, Ethyl 2-(4-((2,5-Dichloro-N-ethylphenyl)sulfonamido)phenyl)-acetate]		>5	>63	
CCN(c1ccc(CC(=O)O)cc1)S(=O)(=O)c1cc(Cl)ccc1Cl [compound 25, 2-(4-((2,5-Dichloro-N-ethylphenyl)sulfonamido)phenyl)acetic Acid]		>25		
CCN(c1ccc(CCO)cc1)S(=O)(=O)c1cc(Cl)ccc1Cl [compound 26, 2,5-Dichloro-N-ethyl-N-(4-(2-hydroxyethyl)phenyl)-benzenesulfonamide]		>25		
CCN(c1ccc(CCN)cc1)S(=O)(=O)c1cc(Cl)ccc1Cl [compound 27, N-(4-(2-Aminoethyl)phenyl)-2,5-dichloro-N-ethylbenzenesulfonamide]		>25		
CCN(c1ccc(CCNC(C)=O)cc1)S(=O)(=O)c1cc(Cl)ccc1Cl [compound 28, N-(4-((2,5-Dichloro-N-ethylphenyl)sulfonamido)phenethyl)-acetamide]		>25		
CCN(c1ccc(CC(=O)N2CCN(C)CC2)cc1)S(=O)(=O)c1cc(Cl)ccc1Cl [compound 29, 2,5-Dichloro-N-ethyl-N-(4-(2-(4-methylpiperazin-1-yl)-2-oxoethyl)phenyl)benzenesulfonamide]		>25		
CCN(c1ccc(F)cc1F)S(=O)(=O)c1ccccc1 [compound 30, N-(2,4-Difluorophenyl)-N-ethylbenzenesulfonamide]	inactive			
CCN(c1ccc(F)cc1F)S(=O)(=O)c1ccccc1Cl [compound 31, 2-Chloro-N-(2,4-difluorophenyl)-N-ethylbenzenesulfonamide]	inactive			
CCN(c1ccc(F)cc1F)S(=O)(=O)c1cccc(Cl)c1 [compound 32, 3-Chloro-N-(2,4-difluorophenyl)-N-ethylbenzenesulfonamide]	maintained activity			lower level of activity than 21 [2]: 10 fold
CCN(c1ccc(F)cc1F)S(=O)(=O)c1ccc(Cl)cc1Cl [compound 33, 2,4-Dichloro-N-(2,4-difluorophenyl)-N-ethylbenzenesulfonamide]	inactive			
CCN(c1ccc(F)cc1F)S(=O)(=O)c1cc(Cl)cc(Cl)c1 [compound 34, 3,5-Dichloro-N-(2,4-difluorophenyl)-N-ethylbenzenesulfonamide]				less active than 1–55 [2]: > 10 fold
CCN(c1ccc(F)cc1F)S(=O)(=O)c1c(Cl)cccc1Cl [compound 35, 2,6-Dichloro-N-(2,4-difluorophenyl)-N-ethylbenzenesulfonamide]	inactive			
CCN(c1ccc(F)cc1F)S(=O)(=O)c1ccc(Cl)c(Cl)c1 [compound 36, 3,4-Dichloro-N-(2,4-difluorophenyl)-N-ethylbenzenesulfonamide]	inactive			
CCN(c1ccc(F)cc1F)S(=O)(=O)c1cccc(Cl)c1Cl [compound 37, 2,3-Dichloro-N-(2,4-difluorophenyl)-N-ethylbenzenesulfonamide]	inactive			
O=S(=O)(c1cc(Cl)ccc1Cl)N1CCc2cc(Cl)ccc21 [compound 49, 5-Chloro-1-((2,5-dichlorophenyl)sulfonyl)indoline]				activity under the assay conditions [1]: inactive
O=S(=O)(c1cc(Cl)ccc1Cl)N1CCCc2cc(Cl)ccc21 [compound 50, 6-Chloro-1-((2,5-dichlorophenyl)sulfonyl)-1,2,3,4-tetrahydroquinoline]				activity under the assay conditions [1]: inactive
C#CCCC1(CCN(c2ccc(Cl)cc2C)S(=O)(=O)c2cc(Cl)ccc2Cl)N=N1 [compound 52, N-(2-(3-(But-3-yn-1-yl)-3H-diazirin-3-yl)ethyl)-2,5-dichloro-N-(4-chloro-2-methylphenyl)benzenesulfonamide]				activity under the assay conditions [1]: not active
C#CCCC1(CCOC(=O)Cc2ccc(N(CC)S(=O)(=O)c3cc(Cl)ccc3Cl)cc2)N=N1 [compound 53, 2-(3-(But-3-yn-1-yl)-3H-diazirin-3-yl)ethyl 2-(4-((2,5-Dichloro-Nethylphenyl)sulfonamido)phenyl)acetate]				activity under the assay conditions [1]: not active
